Where “and” joins values, the source holds several entries; their conditions need not be identical. Identical values can stand only once. Inconclusive results and toxic doses are left out.

The test system of the assay is P388 leukemia ip, CD2F1 mice, survival T/C. The experiment in a line: NCI In Vivo Anticancer Drug Screen. Data for tumor model P388 Leukemia (intraperitoneal) in CD2F1 (CDF1) mice. The settings on record: endpoint: median survival time, higher = longer survival. The method, boiled down:
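Mice carrying the transplanted tumor received test compound or vehicle. Survival was recorded in each group, and the value is the treated-group measurement divided by that of the vehicle-treated control group.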

[1] abbreviates: dose: 50.0 mg/kg/injection, schedule: Q01DX009 (ip), vehicle: saline with Tween-80.
Where [2] appears, read: dose: 100.0 mg/kg/injection, schedule: Q01DX009 (ip), vehicle: saline with Tween-80.
The mark [3] stands for this setting: dose: 200.0 mg/kg/injection, schedule: Q01DX009 (ip), vehicle: saline with Tween-80.
Setting [4] is: dose: 400.0 mg/kg/injection, schedule: Q01DX009 (ip), vehicle: saline with Tween-80.
Setting [5] is: dose: 12.5 mg/kg/injection, schedule: Q01DX005 (ip), vehicle: saline with Tween-80.
Setting [6] is: dose: 25.0 mg/kg/injection, schedule: Q01DX005 (ip), vehicle: saline with Tween-80.
The mark [7] stands for this setting: dose: 200.0 mg/kg/injection, schedule: Q01DX005 (ip), vehicle: saline with Tween-80.
Setting [8] is: dose: 50.0 mg/kg/injection, schedule: Q01DX005 (ip), vehicle: saline with Tween-80.
Setting [9] is: dose: 100.0 mg/kg/injection, schedule: Q01DX005 (ip), vehicle: saline with Tween-80.

As for `Cc1cccc(C(=O)N(C)C(c2ccco2)P(=O)(c2ccccc2)c2ccccc2)c1` (configuration not stated), the T/C is 107 % of control under setting [1], 101 % of control under setting [2], 90 % of control under setting [3] and 86 % of control under setting [4].
With `COC(=O)C1C2CC3c4[nH]c5c([N+](=O)[O-])c(OC)ccc5c4CCN3CC2CC(OC(=O)c2cc(OC)c(OC)c(OC)c2)C1OC` (configuration not stated), the T/C is, setting by setting: (dose: 9.38 mg/kg/injection, schedule: Q01DX005 (ip), vehicle: Klucel (hydroxypropylcellulose) (HPC)) 98 % of control; (dose: 18.75 mg/kg/injection, schedule: Q01DX005 (ip), vehicle: Klucel (hydroxypropylcellulose) (HPC)) 95 % of control; (dose: 37.5 mg/kg/injection, schedule: Q01DX005 (ip), vehicle: Klucel (hydroxypropylcellulose) (HPC)) 96 % of control; (dose: 75.0 mg/kg/injection, schedule: Q01DX005 (ip), vehicle: Klucel (hydroxypropylcellulose) (HPC)) 86 % of control.
With `NC(N)=NCCCC(N)C(=O)CC(Cc1ccccc1)C(=O)O` (configuration not stated), the T/C is, setting by setting: (dose: 8.8 mg/kg/injection, schedule: Q01DX005 (ip), vehicle: water) 104 % of control; (dose: 17.0 mg/kg/injection, schedule: Q01DX005 (ip), vehicle: water) 108 % of control; (dose: 34.0 mg/kg/injection, schedule: Q01DX005 (ip), vehicle: water) 106 % of control; (dose: 68.0 mg/kg/injection, schedule: Q01DX005 (ip), vehicle: water) 100 % of control.
In the case of `CC(C)(C)N1COCO[C@H]2CCC[C@@H]21`, the T/C (dose: 25.0 mg/kg/injection, schedule: Q04DX002 (ip), vehicle: Klucel (hydroxypropylcellulose) (HPC)) was 100 % of control; the T/C (dose: 50.0 mg/kg/injection, schedule: Q04DX002 (ip), vehicle: Klucel (hydroxypropylcellulose) (HPC)) was 102 % of control; the T/C (dose: 100.0 mg/kg/injection, schedule: Q04DX002 (ip), vehicle: Klucel (hydroxypropylcellulose) (HPC)) is 114 % of control; the T/C (dose: 200.0 mg/kg/injection, schedule: Q04DX002 (ip), vehicle: Klucel (hydroxypropylcellulose) (HPC)) is 100 % of control and 123 % of control.
Take `C=CC(C)(C)c1c(OC)cc(-c2ccccc2)oc1=O`: the T/C runs as follows: (dose: 8.0 mg/kg/injection, schedule: Q01DX005 (ip), vehicle: Klucel + Tween-80) 103 % of control; (dose: 16.0 mg/kg/injection, schedule: Q01DX005 (ip), vehicle: Klucel + Tween-80) 103 % of control; (dose: 32.0 mg/kg/injection, schedule: Q01DX005 (ip), vehicle: Klucel + Tween-80) 109 % of control; (dose: 64.0 mg/kg/injection, schedule: Q01DX005 (ip), vehicle: Klucel + Tween-80) 107 % of control.
For `CC(C)(C)c1ccc(C(=O)NCSCC(NC(=O)CCC(N)C(=O)O)C(=O)NCC(=O)O)cc1` (configuration not stated), the T/C was 98 % of control (dose: 60.0 mg/kg/injection, schedule: Q01DX005 (ip), vehicle: saline with Tween-80); 104 % of control (dose: 120.0 mg/kg/injection, schedule: Q01DX005 (ip), vehicle: saline with Tween-80); 86 % of control (dose: 240.0 mg/kg/injection, schedule: Q01DX005 (ip), vehicle: saline with Tween-80).
As for `O=C1c2cc3c(-c4ccccc4)oc(-c4ccccc4)c3cc2C(=O)c2c(O)ccc(O)c21`, the T/C (dose: 6.25 mg/kg/injection, schedule: Q01DX005 (ip), vehicle: saline with Tween-80) was 94 % of control; the T/C under setting [5] was 94 % of control; the T/C under setting [6] is 94 % of control; the T/C under setting [7] was 99 % of control.
As to `ClCCN(CCCl)CCCN1c2ccccc2Sc2ccccc21`, under “dose: 3.12 mg/kg/injection, schedule: Q01DX009 (ip), vehicle: saline with Tween-80”, the T/C is 122 % of control.
On to `Cc1cc(NC(=O)c2ccc(NC(=O)c3ccc(N)cc3)cc2)ccc1N=Nc1ccc2c(O)c(N=Nc3ccc(S(=O)(=O)O)cc3C)c(S(=O)(=O)O)cc2c1`, for which the T/C under setting [8] is 104 % of control and 107 % of control and 108 % of control; the T/C under setting [9] was 105 % of control and 112 % of control and 117 % of control; the T/C under setting [7] was 107 % of control and 114 % of control; the T/C (dose: 400.0 mg/kg/injection, schedule: Q01DX005 (ip), vehicle: saline with Tween-80) was 113 % of control and 119 % of control.
In the case of `Cc1ccc(S(=O)(=O)N(CCc2ccc(Cl)cc2)S(=O)(=O)c2ccc(C)cc2)cc1`, the T/C runs as follows: (dose: 50.0 mg/kg/injection, schedule: Q01DX009 (ip), vehicle: Klucel (hydroxypropylcellulose) (HPC)) 109 % of control; (dose: 100.0 mg/kg/injection, schedule: Q01DX009 (ip), vehicle: Klucel (hydroxypropylcellulose) (HPC)) 94 % of control; (dose: 200.0 mg/kg/injection, schedule: Q01DX009 (ip), vehicle: Klucel (hydroxypropylcellulose) (HPC)) 93 % of control.
For `CCCCCCCCCCCC(CCCCCCCCCC)CCCCCCCCCC`, the T/C reads like this: (dose: 50.0 mg/kg/injection, schedule: Q01DX001 (ip), vehicle: saline with Tween-80) 109 % of control; (dose: 100.0 mg/kg/injection, schedule: Q01DX001 (ip), vehicle: saline with Tween-80) 104 % of control; (dose: 200.0 mg/kg/injection, schedule: Q01DX001 (ip), vehicle: saline with Tween-80) 100 % of control.
For the molecule `O=S1(=O)C2CCC(Cl)C1CCC2Cl` (configuration not stated), the T/C runs as follows: (dose: 75.0 mg/kg/injection, schedule: Q04DX003 (ip), vehicle: Klucel (hydroxypropylcellulose) (HPC)) 98 % of control; (dose: 150.0 mg/kg/injection, schedule: Q04DX003 (ip), vehicle: Klucel (hydroxypropylcellulose) (HPC)) 100 % of control.
On to `Cc1cccc2sc(NC(=O)Nc3cccc(F)c3)nc12`, for which the T/C by setting is: under setting [5], 93 % of control and 94 % of control; under setting [6], 100 % of control and 96 % of control; under setting [8], 94 % of control and 96 % of control; under setting [9], 104 % of control and 89 % of control.
With `CN1CCN(CC(=O)c2c(-c3ccccc3)[nH]c3ccccc23)CC1`, the T/C is, setting by setting: (dose: 100.0 mg/kg/injection, schedule: Q04DX003 (ip), vehicle: saline) 101 % of control; (dose: 200.0 mg/kg/injection, schedule: Q04DX003 (ip), vehicle: saline) 105 % of control; (dose: 400.0 mg/kg/injection, schedule: Q04DX003 (ip), vehicle: saline) 97 % of control.
Turning to `COc1ccc(C2OC23Cc2ccccc2C3=O)cc1OC` (configuration not stated), the T/C is 109 % of control under setting [1], 100 % of control under setting [2] and 88 % of control under setting [3].
Taken in the same sequence, the figures for `CCOC(=O)CC(SP(=S)(OC)OC)C(=O)OCC` (configuration not stated) were 103 % of control, 112 % of control and 107 % of control.
On to `CN(C)[C@@H]1C(=O)C(C(=O)NCc2nc3[nH]cnc(=S)c3[nH]2)=C(O)[C@@]2(O)C(=O)C3=C(O)c4c(O)cccc4[C@@](C)(O)[C@H]3C[C@@H]12`, for which the T/C runs as follows: under setting [2], 100 % of control; (dose: 100.0 mg/kg/injection, schedule: Q04DX003 (ip), vehicle: saline with Tween-80) 95 % of control; under setting [3], 100 % of control; (dose: 200.0 mg/kg/injection, schedule: Q04DX003 (ip), vehicle: saline with Tween-80) 95 % of control; under setting [4], 110 % of control; (dose: 400.0 mg/kg/injection, schedule: Q04DX003 (ip), vehicle: saline with Tween-80) 100 % of control.
In the case of `OC(COc1c2ccccc2nc2ccccc12)CN1CCN(c2ccccc2)CC1` (configuration not stated), the T/C was 94 % of control under setting [8] and 90 % of control under setting [9].
For `CCOC(=O)C[n+]1cc2ccccc2cc1C`, in that order: 94 % of control and 108 % of control.
In the case of `CC(=O)/C=C(\C)Nc1noc(-c2ccccc2)n1`, the T/C reads like this: (dose: 4.38 mg/kg/injection, schedule: Q01DX005 (ip), vehicle: Klucel (hydroxypropylcellulose) (HPC)) 102 % of control; (dose: 8.75 mg/kg/injection, schedule: Q01DX005 (ip), vehicle: Klucel (hydroxypropylcellulose) (HPC)) 96 % of control; (dose: 17.5 mg/kg/injection, schedule: Q01DX005 (ip), vehicle: Klucel (hydroxypropylcellulose) (HPC)) 101 % of control.
As for `Cc1cc2c(cc1C)C(=O)c1c(O)c3c(c(O)c1C2=O)C[C@@](O)(C(=O)CO)C[C@@H]3OC1CC(N)C(O)C(C)O1` (some centres not stated), the T/C runs as follows: (dose: 0.39 mg/kg/injection, schedule: Q04DX003 (ip), vehicle: water) 115 % of control; (dose: 0.78 mg/kg/injection, schedule: Q04DX003 (ip), vehicle: water) 115 % of control; (dose: 1.56 mg/kg/injection, schedule: Q04DX003 (ip), vehicle: water) 110 % of control; (dose: 3.13 mg/kg/injection, schedule: Q04DX003 (ip), vehicle: water) 151 % of control and 157 % of control; (dose: 6.25 mg/kg/injection, schedule: Q04DX003 (ip), vehicle: water) 190 % of control; (dose: 25.0 mg/kg/injection, schedule: Q04DX003 (ip), vehicle: water) 100 % of control.

Source of the values: PubChem BioAssay AID330 (DTP/NCI, 2004).
